Source: patent publication US10112907B2, “Substituted indazoles for treating tendon and/or ligament injuries” (NOVARTIS AG, priority 2016, dated 2018)
Where two headings read alike, the source gives them in different places.

What was measured:
[1] = biological target: recombinant human Tyk2 (aa888-1187) (Homo sapiens (Human), UniProt P29597); assay: Kinase selectivity panel, substrate peptide phosphorylation (Caliper); type: biochemical; settings: 45 uM ATP
[2] = biological target: recombinant human Jak1 (aa 866-1154) (Homo sapiens (Human), UniProt P23458); assay: as above; type: biochemical
recombinant human Jak1 (aa 866-1154), sequence (P23458 866-1154): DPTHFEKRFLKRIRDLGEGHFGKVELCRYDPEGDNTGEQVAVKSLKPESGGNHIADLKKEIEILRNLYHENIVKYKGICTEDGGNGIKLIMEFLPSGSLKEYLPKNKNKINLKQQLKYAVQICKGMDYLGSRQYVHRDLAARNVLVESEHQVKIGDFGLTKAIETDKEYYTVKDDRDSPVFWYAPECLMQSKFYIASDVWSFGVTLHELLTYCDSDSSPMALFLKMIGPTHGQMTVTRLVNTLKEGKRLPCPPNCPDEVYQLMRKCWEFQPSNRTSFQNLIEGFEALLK

[3] = biological target: recombinant human Jak2 (aa808-1132) (Homo sapiens (Human), UniProt O60674); assay: as above; type: biochemical
[4] = system: Scleraxis (Scx) gene transcriptional activation in TT-D6 Scx-luciferase (ScxL) cell line; assay: SCX-LUC in vitro assay (Scx-luciferase reporter); type: cell-based; settings: Mus musculus
[5] = biological target: recombinant human Jak3 (aa811-1124) (Homo sapiens (Human), UniProt P52333); type: biochemical
recombinant human Jak3 (aa811-1124), sequence (P52333 811-1124): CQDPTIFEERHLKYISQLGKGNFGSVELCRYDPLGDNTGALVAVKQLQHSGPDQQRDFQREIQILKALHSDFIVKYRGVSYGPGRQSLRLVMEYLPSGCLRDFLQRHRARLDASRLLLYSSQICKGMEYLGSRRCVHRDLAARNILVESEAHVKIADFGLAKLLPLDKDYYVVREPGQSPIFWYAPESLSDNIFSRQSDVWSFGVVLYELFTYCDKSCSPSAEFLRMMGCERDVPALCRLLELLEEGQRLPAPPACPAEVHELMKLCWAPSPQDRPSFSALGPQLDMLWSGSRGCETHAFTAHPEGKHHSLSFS

[6] = system: Scleraxis (Scx) gene expression in rat tail tendon fascicles; assay: Ex vivo assay, Scx mRNA in tendon fascicles (qPCR); type: cell-based, Sprague Dawley rat
[7] = system: collagen type I (Col1a2) gene expression in rat tail tendon fascicles; assay: Ex vivo assay, Col1a2 mRNA in tendon fascicles (qPCR); type: cell-based, Sprague Dawley rat
[8] = system: Tenomodulin (Tnmd) gene expression in rat tail tendon fascicles; assay: Ex vivo assay, Tnmd mRNA in tendon fascicles (qPCR); type: cell-based, Sprague Dawley rat
tendon lesion = assay: In vivo assay, endochondral ossification readout (Alcian blue) in tendon lesion; settings: 1 mg peri-tendinous injection 3 days post-surgery
Procedure: Animals were treated 3 days post-surgery with 1 mg of compound of example 32 in 10 ul of vehicle delivered by injection under the skin in the peri-tendinous region. Tendons were harvested 25 days post-treatment. Strong Alcian blue staining could be seen in the lesion in the vehicle treated group which is typical of endochondral tissue forming which further ossifies with time. […] Definiens Tissue Studio software was used for quantitative image analysis of the Alcian blue positive area. Serial step sections encompassing 2 mm of the lesion were used for quantification.

Rat tail fascicles = assay: Ex vivo fascicle assay, mechanical testing; design: species or system rat (Sprague Dawley); settings: 1 uM, 37° C., 4 weeks
Excerpt: Tail from skeletal mature rat (Sprague Dawley, female, 30-50 weeks old) was removed and kept on ice. Approximately 40 mm long segment was cut from the mid-portion of the tail. Rat tail fascicles (n=12) were carefully extracted from the segment. Fascicles were then randomly selected into three groups, fresh (n=4), vehicle (n=4) and (S)-(1-((4-(3-amino-4-methyl-1H-indazol-5-yl)-3-methylphenyl)sulfonyl)-4,4-difluoropyrrolidin-2-yl)methanol (Test Compound A hereinafter) treated (n=4). Biomechanical properties were measure immediately after extraction for the fresh group. […]
Samples were clamped for mechanical testing using a standard uniaxial material testing machine (ElectroPuls E3000, 50N load-cell, Instron, US) in a custom environmental testing chamber filled with PBS. Samples were preloaded to a position where crimp (macroscopic fascicle waviness) disappeared and initial length (L0) based on grip-to-grip distance was recorded. […] Sample lengths and corresponding forces were recorded to calculate engineering stress and strain. Young's moduli were calculated from the linear region of the stress-strain curves. […]

[9] = read-out: Ex vivo SCX (EC50 uM)
[10] = read-out: Ex vivo Col1a2 (EC50 uM)
[11] = read-out: Ex vivo Tnmd (EC50 uM)
[12] = 96 h, Table 3, four days, read-out: Scx-Luc (EC50 μM)
[13] = 96 h, Table 3, four days, read-out: Ex vivo Scx (EC50 μM)
[14] = 96 h, Table 3, four days, read-out: Ex vivo Col1a2 (EC50 μM)
[15] = 96 h, Table 3, four days, read-out: Ex vivo Tnmd (EC50 μM)
[16] = Table 1, read-out: Scx-Luc (EC50 uM)
[17] = Table 1, read-out: Ex vivo SCX (EC50 uM)
[18] = Table 1, read-out: Ex vivo Col1a2 (EC50 uM)
[19] = Table 1, read-out: Ex vivo Tnmd (EC50 uM)

recombinant human Tyk2 (aa888-1187), sequence (P29597 888-1187): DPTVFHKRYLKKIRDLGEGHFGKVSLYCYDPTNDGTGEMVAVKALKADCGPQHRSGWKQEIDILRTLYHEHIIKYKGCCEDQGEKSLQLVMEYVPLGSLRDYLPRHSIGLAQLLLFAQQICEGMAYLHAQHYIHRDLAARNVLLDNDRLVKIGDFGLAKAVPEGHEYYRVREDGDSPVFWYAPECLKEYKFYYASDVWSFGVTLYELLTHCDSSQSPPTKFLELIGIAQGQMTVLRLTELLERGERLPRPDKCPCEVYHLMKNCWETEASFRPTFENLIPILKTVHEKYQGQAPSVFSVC

| SMILES | EC50 [4, 12] | EC50 [6, 13] | EC50 [7, 14] | EC50 [8, 15] | also measured |
| --- | --- | --- | --- | --- | --- |
| Cc1cc(Nc2nc(N[C@@H](C)c3ncc(F)cn3)ncc2Cl)n[nH]1 [reference compound] |  |  |  |  | IC50 [1]: 0.002 µM; IC50 ([2]; 45 uM ATP): 0.0002 µM; IC50 ([3]; 45 uM ATP): 0.0007 µM; EC50 ([4]; read-out: Scx-Luc (EC50 uM)): 0.008 µM; IC50 ([5]; 45 uM ATP): 0.06 µM; EC50 [6, 9]: 3.37 µM; EC50 [7, 10]: 2.61 µM; EC50 [8, 11]: 3.3 µM |
| CCS(=O)(=O)N1CC(CC#N)(n2cc(-c3ncnc4[nH]ccc34)cn2)C1 |  |  |  |  | IC50 [1]: 0.03 µM |
| Cc1cc(S(=O)(=O)N2CC(F)(F)C[C@H]2CO)ccc1-c1ccc2[nH]nc(N)c2c1C [Example 32, (S)-(1-((4-(3-amino-4-methyl-1H-indazol-5-yl)-3-methylphenyl)sulfonyl)-4,4-difluoropyrrolidin-2-yl)methanol] | 0.518 µM | 5.56 µM | 4.59 µM | 6.1 µM | effect on improper healing (aberrant differentiation towards chondrogenic and osteogenic lineages) (tendon lesion; 25 days post-treatment): able to counter some of the improper healing; Endochondral ossification readout Alcian Blue positive (mm^2/section), Mean (tendon lesion; tendons harvested 25 days post-treatment): 25.09 mm^2/section; tendon degeneration in unloaded condition (tendon structure, failure stress, Young's modulus) (Rat tail fascicles): could prevent the degeneration |
| N#Cc1ccc(COc2ccc(-c3cccc4nc(NC(=O)C5CC5)nn34)cc2)cn1 [reference compound] |  |  |  |  | IC50 [1]: 0.11 µM; IC50 [2]: 0.001 µM; IC50 [3]: 0.03 µM; EC50 [4, 16]: 0.22 µM; IC50 [5]: 0.38 µM; EC50 [6, 17]: 5.77 µM; EC50 [7, 18]: 0.9 µM; EC50 [8, 19]: 1.31 µM |
| Cc1cc(S(=O)(=O)N(C)C2CC(F)(F)C2)ccc1-c1ccc2[nH]nc(N)c2c1C [Example 63, 4-(3-amino-4-methyl-1H-indazol-5-yl)-N-(3,3-difluorocyclobutyl)-N,3-dimethylbenzenesulfonamide] | 0.222 µM | 1.38 µM | 1.79 µM | 5.41 µM |  |
| COc1c(-c2ccc(S(=O)(=O)N[C@@H]3CCC[C@@H]3O)cc2C)ccc2[nH]nc(N)c12 [Example 73, 4-(3-amino-4-methoxy-1H-indazol-5-yl)-N-((1R,2S)-2-hydroxycyclopentyl)-3-methylbenzenesulfonamide] | 0.632 µM | 5.23 µM | 3.77 µM | 6.51 µM |  |
| Cc1cc(S(=O)(=O)N2CC(F)(F)C[C@H]2CO)ccc1-c1ccc2[nH]nc(N)c2c1Cl [Example 54, (S)-(1-((4-(3-amino-4-chloro-1H-indazol-5-yl)-3-methylphenyl)sulfonyl)-4,4-difluoropyrrolidin-2-yl)methanol] | 0.242 µM | 3.8 µM | 4.42 µM | 0.706 µM |  |
| CS(=O)(=O)NCc1nc2cnc3[nH]ccc3c2n1[C@@H]1C[C@H]2CC[C@@H]1C2 [reference compound] |  |  |  |  | IC50 [1]: 0.14 µM; IC50 [3]: 0.19 µM; EC50 [4, 16]: 0.18 µM; IC50 [5]: 0.95 µM; EC50 [6, 17]: 3.22 µM; EC50 [7, 18]: 3.76 µM; EC50 [8, 19]: 4.57 µM |
| CC[C@@](C)(Nc1ccnc(-c2c[nH]c3ncccc23)n1)C(=O)NCC(F)(F)F [reference compound] |  |  |  |  | IC50 ([2]; 45 uM ATP): 0.02 µM; IC50 [3]: 0.13 µM; EC50 ([4]; read-out: Scx-Luc (EC50 uM)): 0.03 µM; EC50 [6, 9]: 1.65 µM; EC50 [7, 10]: 0.88 µM; EC50 [8, 11]: 1.77 µM |
| Cc1cc(S(=O)(=O)N2CC[C@@H](O)C2)ccc1-c1ccc2[nH]nc(N)c2c1Cl [Example 7, (R)-1-((4-(3-amino-4-chloro-1H-indazol-5-yl)-3-methylphenyl)sulfonyl)pyrrolidin-3-ol] | 2.02 µM | 5.35 µM | 3.31 µM | 0.463 µM |  |
| Cc1c(-c2ccc(S(=O)(=O)N[C@H]3C[C@](O)(C(F)(F)F)C3)cc2Cl)ccc2[nH]nc(N)c12 [Example 55, 4-(3-amino-4-methyl-1H-indazol-5-yl)-3-chloro-N-((1s,3s)-3-hydroxy-3-(trifluoromethyl)cyclobutyl)benzenesulfonamide] | 0.228 µM | 3.14 µM | 3.5 µM | 5.5 µM |  |
| Nc1n[nH]c2ccc(-c3ccc(S(=O)(=O)N[C@@H]4CCC[C@@H]4O)cc3Cl)c(Cl)c12 [Example 69, 4-(3-amino-4-chloro-1H-indazol-5-yl)-3-chloro-N-((1R,2S)-2-hydroxycyclopentyl)benzenesulfonamide] | 0.148 µM | 1.05 µM | 1.48 µM | 3.84 µM |  |
| Cc1cc(S(=O)(=O)NC2CCOCC2)ccc1-c1ccc2[nH]nc(N)c2c1C [Example 21, 4-(3-amino-4-methyl-1H-indazol-5-yl)-3-methyl-N-(tetrahydro-2H-pyran-4-yl)benzenesulfonamide] | 1.26 µM | 3.7 µM | 5.32 µM | 6.64 µM |  |
| C1=C/COCc2cc(ccc2OCCN2CCCC2)Nc2nccc(n2)-c2cccc(c2)COC/1 [reference compound] |  |  |  |  | EC50 ([4]; read-out: Scx-Luc (EC50 uM)): 1.06 µM; EC50 [6, 17]: 3.32 µM; EC50 [7, 18]: 3.11 µM; EC50 [8, 19]: 6.71 µM |
| Cc1cc(S(=O)(=O)N[C@H]2C[C@](O)(C(F)(F)F)C2)ccc1-c1ccc2[nH]nc(N)c2c1Cl [Example 37, 4-(3-amino-4-chloro-1H-indazol-5-yl)-N-((1s,3s)-3-hydroxy-3-(trifluoromethyl)cyclobutyl)-3-methylbenzenesulfonamide] | 0.227 µM | 0.996 µM | 1.82 µM | 1.69 µM |  |
| Cc1cc(S(=O)(=O)N[C@H]2C[C@](O)(C(F)(F)F)C2)ccc1-c1ccc2[nH]nc(N)c2c1C [Example 31, 4-(3-amino-4-methyl-1H-indazol-5-yl)-N-((1s,3s)-3-hydroxy-3-(trifluoromethyl)cyclobutyl)-3-methylbenzenesulfonamide] | 0.126 µM | 5.54 µM | 4.18 µM | 3.77 µM |  |
